Like-named read-outs stand apart in the source and are kept apart here.
Assays:
FXIa = FXIa (Homo sapiens, UniProt P03951); experiment: Inhibitory activity against FXIa in vitro (biochemical assay)
Experimental: Test Example 1. Test of the inhibitory activities of the compounds of the present invention against plasma kallikrein (PKa), KLK1 and FXIa in vitro.
PKK (R & D, Cat # 2497-SE) and Pro-Phe-Arg-AMC (Nanjing Peptide, Cat # NJP23946) solutions were prepared in reaction buffer (50 mM Tris-HCl, pH 7.5, 250 mM NaCl). The final concentrations of enzyme protein and Pro-Phe-Arg-AMC in the reaction mixture were 10 nM and 60 µM, respectively. The starting concentration of the positive reference substance Avoralstat was 100 nM, 3-fold dilution, 10 + 0 dose. 0.05 µL of compound in 100% DMSO was delivered to a 384-well plate by an acoustic liquid delivery technique (Echo665; nanoliter range). Compound duplex test. 5 µL of 2 × enzyme solution was transferred to a 384 reaction plate and centrifuged at 1000 rpm for 1 minute, incubated at 25°C for 15 minutes; 5 µL of 2 × Pro-Phe-Arg-AMC solution was transferred to a 384 reaction plate, centrifuged at 1000 rpm for 1 minute, incubated at 25°C for 3 hours. […] IC50 values and nonlinear regression curve fitting were obtained using GraphPad Prism software.

KLK1 = KLK1 (Homo sapiens, UniProt P06870); experiment: Inhibitory activity against KLK1 in vitro (biochemical assay)
Excerpt: Test Example 1. Test of the inhibitory activities of the compounds of the present invention against plasma kallikrein (PKa), KLK1 and FXIa in vitro. […]

plasma kallikrein (PKa) = molecular target: T1, plasma kallikrein (PKa) (Homo sapiens, UniProt P03952); experiment: Inhibitory activity against plasma kallikrein in vitro (fluorescence intensity enzyme assay, Pro-Phe-Arg-AMC substrate); type: biochemical; conditions: Pro-Phe-Arg-AMC substrate
T1 construct: purchased R & D 2497-SE
How it was run: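 Fluorescence intensity enzyme assay with 10 nM enzyme and 60 µM Pro-Phe-Arg-AMC (final concentrations). Compounds in DMSO, tested in duplicate over a dose series. IC50 from nonlinear regression curve fitting.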

[1] = plasma kallikrein enzyme assay, read-out: PKa IC50

KLK1, sequence (P06870 25-262, species assumed): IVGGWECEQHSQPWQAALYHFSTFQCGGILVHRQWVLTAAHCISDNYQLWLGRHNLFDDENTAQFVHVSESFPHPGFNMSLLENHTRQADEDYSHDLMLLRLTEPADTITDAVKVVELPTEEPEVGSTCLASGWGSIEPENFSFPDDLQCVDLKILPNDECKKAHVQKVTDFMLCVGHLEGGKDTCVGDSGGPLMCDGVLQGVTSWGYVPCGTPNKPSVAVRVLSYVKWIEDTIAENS
T1 sequence (P03952 391-638 limits assumed): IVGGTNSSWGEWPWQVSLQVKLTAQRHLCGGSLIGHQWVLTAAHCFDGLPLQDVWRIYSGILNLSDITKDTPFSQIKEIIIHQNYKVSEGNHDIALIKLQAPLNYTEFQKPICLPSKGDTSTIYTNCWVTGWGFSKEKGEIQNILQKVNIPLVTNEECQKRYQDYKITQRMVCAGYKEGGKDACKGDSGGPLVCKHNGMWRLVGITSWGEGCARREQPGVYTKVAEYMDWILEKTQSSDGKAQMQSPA
T1 sequence (P03952 20-390 partner limits assumed): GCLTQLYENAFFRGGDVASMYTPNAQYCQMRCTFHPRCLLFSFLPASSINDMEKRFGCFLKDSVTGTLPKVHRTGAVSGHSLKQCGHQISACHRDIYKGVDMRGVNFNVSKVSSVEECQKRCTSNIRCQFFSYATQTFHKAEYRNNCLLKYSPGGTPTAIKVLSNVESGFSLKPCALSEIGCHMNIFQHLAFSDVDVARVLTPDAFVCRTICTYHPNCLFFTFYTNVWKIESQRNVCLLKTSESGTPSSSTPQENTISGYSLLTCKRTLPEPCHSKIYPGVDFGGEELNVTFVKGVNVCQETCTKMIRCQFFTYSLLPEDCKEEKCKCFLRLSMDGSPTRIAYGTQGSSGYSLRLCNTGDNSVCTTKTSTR
FXIa, sequence (P03951 388-625 limits assumed): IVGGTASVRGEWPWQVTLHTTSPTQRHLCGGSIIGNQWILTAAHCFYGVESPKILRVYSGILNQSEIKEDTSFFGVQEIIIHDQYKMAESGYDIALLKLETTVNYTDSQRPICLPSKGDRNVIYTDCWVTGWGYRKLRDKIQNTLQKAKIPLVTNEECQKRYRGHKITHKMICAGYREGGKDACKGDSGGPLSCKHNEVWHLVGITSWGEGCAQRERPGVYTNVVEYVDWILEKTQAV
FXIa, sequence (P03951 19-387 partner limits assumed): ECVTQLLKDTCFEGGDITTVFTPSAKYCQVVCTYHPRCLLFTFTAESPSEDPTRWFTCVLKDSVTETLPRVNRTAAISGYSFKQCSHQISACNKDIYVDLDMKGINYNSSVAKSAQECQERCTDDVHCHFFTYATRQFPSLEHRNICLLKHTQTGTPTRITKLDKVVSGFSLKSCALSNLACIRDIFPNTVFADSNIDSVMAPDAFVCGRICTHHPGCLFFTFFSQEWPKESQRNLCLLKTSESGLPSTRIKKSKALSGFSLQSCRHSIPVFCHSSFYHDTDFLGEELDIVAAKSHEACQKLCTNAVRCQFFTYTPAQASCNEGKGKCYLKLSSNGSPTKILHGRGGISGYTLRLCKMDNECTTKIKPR

Row | SMILES | IC50 (FXIa; values given in µM) [µM] | IC50 (KLK1; values given in µM) [µM] | IC50 (plasma kallikrein (PKa); [1]) [nM] | IC50 (plasma kallikrein (PKa); PKa IC50, plasma kallikrein enzyme assay) [nM] | IC50 (FXIa; values in nM) [µM] | IC50 (KLK1; values in nM) [µM]
1 | Cc1cc(N)nc(C)c1CNC(=O)c1nnn(Cc2ccc(Cn3ccccc3=O)cc2)n1 [Compound 55] | > 10 | > 10 | 0.16 |  |  | 
2 | Cc1nc(N)c(C)c(C)c1CNC(=O)c1ncn(Cc2ccc(Cn3ccccc3=O)cc2)n1 [Compound 250] | > 10 | > 10 | 1.9 |  |  | 
3 | O=C(NCc1ncc2cc[nH]c2c1F)c1cn(Cc2ccc(Cn3ccccc3=O)cc2)nc1C1COC1 [Compound 337, N-((7-fluoro-1H-pyrrolo[3,2-c]pyridin-6-yl)methyl)-3-(oxetan-3-yl)-1-(4-((2-oxopyridin-1(2H)-yl)methyl)benzyl)-1H-pyrazole-4-carboxamide] | > 10 | > 10 | 2.23 |  |  | 
4 | COCc1nn(Cc2ccc(N3CC4C(C3)C4(F)F)cc2C#N)cc1C(=O)NCc1cc2cnccc2[nH]1 (centres unmarked) [Compound 157, N-((1H-pyrrolo[3,2-c]pyridin-2-yl)methyl)-1-(2-cyano-4-(6,6-difluoro-3-azabicyclo[3.1.0]hexan-3-yl)benzyl)-3-(methoxymethyl)-1H-pyrazole-4-carboxamide] | > 10 | > 10 | 1.89 |  |  | 
5 | COc1cc(Cn2cc(C(=O)NCc3ccc(C(=N)N)cc3)cn2)ccc1CC1CC1 [Compound 255] | > 10 | > 10 | 2.35 |  |  | 
6 | COc1cc(Cn2cc(C(=O)NCc3ccc(C(=N)N)cc3)cn2)cc(OC)c1C(=O)C1CC1 [Compound 371] | > 10 | > 10 | > 100 |  |  | 
7 | N#Cc1cc(N2CCC(F)(F)CC2)ccc1Cn1cc(C(=O)NCc2ccc(C(=N)N)cc2)cn1 [Compound 158] | > 10 | > 10 |  |  |  | 
8 | CCc1cc(N2CC3C(C2)C3(F)F)ccc1Cn1cc(C(=O)NCc2ccc(C(=N)N)cc2)cn1 (centres unmarked) [Compound 16] | > 10 | > 10 | 1.24 |  |  | 
9 | N=C(N)c1ccc(CNC(=O)c2cnn(Cc3ccc(N4CCC(F)(F)CC4)c(C(F)(F)F)c3)c2)cc1 [Compound 387] | > 10 | > 10 | 0.08 |  |  | 
10 | Cc1cc(N)nc(C)c1CNC(=O)c1cn(Cc2ccc3ncc(Cl)cc3c2)nn1 [Compound 9, N-((6-amino-2,4-dimethylpyridin-3-yl)methyl)-1-(3-chloroquinolin-6-yl)methyl-1H-1,2,3-triazole-4-carboxamide] |  |  | 0.406 |  | < 0.5 | < 0.5
11 | CCc1c(N)nc(C)c(CNC(=O)c2ncn(Cc3ccc(Cn4ccccc4=O)cc3)n2)c1C [Compound 257] | > 10 | > 10 | 0.67 |  |  | 
12 | N=C(N)c1ccc(CNC(=O)c2cnn(Cc3ccc(OC4CC4)cc3)c2)cc1 [Compound 354] | > 10 | > 10 | 2.45 |  |  | 
13 | N=C(N)c1ccc(CNC(=O)c2cnn(Cc3cn4cc(C5CC5)ccc4n3)c2)cc1 [Compound 15] | > 10 | > 10 | 0.898 |  |  | 

Further lines, results first:

Row | IC50 (FXIa; values given in µM) [µM] | IC50 (KLK1; values given in µM) [µM] | IC50 (plasma kallikrein (PKa); [1]) [nM] | IC50 (plasma kallikrein (PKa); PKa IC50, plasma kallikrein enzyme assay) [nM] | IC50 (FXIa; values in nM) [µM] | IC50 (KLK1; values in nM) [µM] | SMILES
14 | > 10 | > 10 | 2.57 |  |  |  | O=C(NCc1ncc2cc[nH]c2c1F)c1cnn(Cc2ccc(Cn3ccccc3=O)cc2)c1 [Compound 362, N-((7-fluoro-1H-pyrrolo[3,2-c]pyridin-6-yl)methyl)-1-(4-((2-oxopyridin-1(2H)-yl)methyl)benzyl)-1H-pyrazole-4-carboxamide]
15 | > 10 | > 10 |  | 1.39 |  |  | CN1CCc2cnc(CNC(=O)c3cnn(Cc4ccc(Cn5ccccc5=O)cc4)c3)c(F)c21 [Compound 383]
16 | > 10 | > 10 | 0.44 |  |  |  | Cc1nc(N)c(C)c(C)c1CNC(=O)c1cnn(Cc2ccc(Cn3ccccc3=O)cc2)c1 [Compound 256]
17 | > 10 | > 10 | 0.07 |  |  |  | N=C(N)c1ccc(CNC(=O)c2cnn(Cc3ccc(Cn4ccccc4=O)cc3)c2)c(F)c1 [Compound 341]
18 | > 10 | > 10 | 2.44 |  |  |  | COCc1nn(Cc2ccc(Cn3ccccc3=O)cc2)cc1C(=O)NCc1ncc2c(c1F)NCC2 [Compound 392]
19 | > 10 | > 10 | 2.06 |  |  |  | COCc1nn(Cc2ccc(Cn3ccccc3=O)cc2)cc1C(=O)NCc1ncc2cc[nH]c2c1F [Compound 364]
20 | > 10 | > 10 | 10.2 |  |  |  | Cn1cc(F)c2cnc(CNC(=O)c3cnn(Cc4ccc(Cn5ccccc5=O)cc4)c3)c(F)c21 [Compound 370]
21 | > 10 | > 10 | 1.68 |  |  |  | O=C(NCc1ncc2c(c1F)OCC2)c1cnn(Cc2ccc(Cn3ccccc3=O)cc2)c1 [Compound 395]

— EP4737450A1 (Longwood Pharmaceuticals (Hangzhou) Co., Ltd, priority 2023, dated 2025)
